Source: ChEMBL document CHEMBL5678810
The source made the active and inactive calls. No cut-off for these calls is given here.

Columns and labels:
[1] = biological target: Leucine-rich repeat serine/threonine-protein kinase 2 (Homo sapiens) (UniProt Q5S007); assay: Inhibition of LRRK2 phosphorylation at Ser910 residue in EBV immortalized human derived lymphoblastoid cells at 0.01 to 3 uM incubated for 90 mins by immunoblot analysis; assay type: cell-based; settings: Lymphoblastoid cell, dose 0.01-3 µM
[2] = system: Hepatocyte growth factor receptor (Homo sapiens), P08581 [M1250T]; assay: Inhibition of T7 bacteriophage fused human MET M1250T mutant at 10 uM by KINOMEscan analysis relative to control; values are per cent of control
[3] = biological target: Serine/threonine-protein kinase N1 (Homo sapiens) (UniProt Q16512); assay: Inhibition of T7 bacteriophage fused human PKN1 at 10 uM by KINOMEscan analysis relative to control
[4] = biological target: Tyrosine-protein kinase Fyn (Homo sapiens) (UniProt P06241); assay: Inhibition of T7 bacteriophage fused human FYN at 10 uM by KINOMEscan analysis relative to control
[5] = biological target: Serine/threonine-protein kinase LATS2 (Homo sapiens) (UniProt Q9NRM7); assay: Inhibition of T7 bacteriophage fused human LATS2 at 10 uM by KINOMEscan analysis relative to control; values are per cent of control
[6] = biological target: Mitogen-activated protein kinase 8 (Homo sapiens) (UniProt P45983); assay: Inhibition of T7 bacteriophage fused human JNK1 at 10 uM by KINOMEscan analysis relative to control; values are per cent of control
[7] = biological target: Phosphatidylinositol 5-phosphate 4-kinase type-2 beta (Homo sapiens) (UniProt P78356); assay: Inhibition of T7 bacteriophage fused human PIP5K2B at 10 uM by KINOMEscan analysis relative to control
[8] = biological target: Non-receptor tyrosine-protein kinase TNK1 (Homo sapiens) (UniProt Q13470); assay: Inhibition of T7 bacteriophage fused human TNK1 at 10 uM by KINOMEscan analysis relative to control
[9] = biological target: cAMP-dependent protein kinase catalytic subunit PRKX (Homo sapiens) (UniProt P51817); assay: Inhibition of T7 bacteriophage fused human PRKX at 10 uM by KINOMEscan analysis relative to control
[10] = biological target: Muscle, skeletal receptor tyrosine-protein kinase (Homo sapiens) (UniProt O15146); assay: Inhibition of T7 bacteriophage fused human MUSK at 10 uM by KINOMEscan analysis relative to control; values are per cent of control
[11] = biological target: Mitogen-activated protein kinase 7 (Homo sapiens, UniProt Q13164); assay: Inhibition of T7 bacteriophage fused human ERK5 at 10 uM by KINOMEscan analysis relative to control; values are per cent of control
[12] = biological target: Inhibitor of nuclear factor kappa-B kinase subunit alpha (Homo sapiens) (UniProt O15111); assay: Inhibition of T7 bacteriophage fused human IKK-alpha at 10 uM by KINOMEscan analysis relative to control
[13] = system: Epidermal growth factor receptor (Homo sapiens), P00533 [UNDEFINED MUTATION]; assay: Inhibition of T7 bacteriophage fused human EGFR S752-I759del mutant at 10 uM by KINOMEscan analysis relative to control; values are per cent of control
[14] = biological target: Epithelial discoidin domain-containing receptor 1 (Homo sapiens) (UniProt Q08345); assay: Inhibition of T7 bacteriophage fused human DDR1 at 10 uM by KINOMEscan analysis relative to control
[15] = biological target: Ephrin type-B receptor 1 (Homo sapiens) (UniProt P54762); assay: Inhibition of T7 bacteriophage fused human EPHB1 at 10 uM by KINOMEscan analysis relative to control; values are per cent of control
[16] = biological target: Tyrosine-protein kinase BTK (Homo sapiens) (UniProt Q06187); assay: Inhibition of T7 bacteriophage fused human BTK at 10 uM by KINOMEscan analysis relative to control
[17] = biological target: cGMP-dependent protein kinase 2 (Homo sapiens) (UniProt Q13237); assay: Inhibition of T7 bacteriophage fused human PRKG2 at 10 uM by KINOMEscan analysis relative to control
[18] = biological target: Mitogen-activated protein kinase 15 (Homo sapiens) (UniProt Q8TD08); assay: Inhibition of T7 bacteriophage fused human ERK8 at 10 uM by KINOMEscan analysis relative to control
[19] = biological target: Serine/threonine-protein kinase 16 (Homo sapiens) (UniProt O75716); assay: Inhibition of T7 bacteriophage fused human STK16 at 10 uM by KINOMEscan analysis relative to control
[20] = biological target: Myotonin-protein kinase (Homo sapiens) (UniProt Q09013); assay: Inhibition of T7 bacteriophage fused human DMPK at 10 uM by KINOMEscan analysis relative to control
[21] = biological target: Serine/threonine-protein kinase PLK2 (Homo sapiens) (UniProt Q9NYY3); assay: Inhibition of T7 bacteriophage fused human PLK2 at 10 uM by KINOMEscan analysis relative to control
[22] = biological target: Tyrosine-protein kinase Fgr (Homo sapiens) (UniProt P09769); assay: Inhibition of T7 bacteriophage fused human FGR at 10 uM by KINOMEscan analysis relative to control; values are per cent of control
[23] = system: Phosphatidylinositol 4,5-bisphosphate 3-kinase catalytic subunit alpha isoform (Homo sapiens), P42336 [E545A]; assay: Inhibition of T7 bacteriophage fused human PIK3CA E545A mutant at 10 uM by KINOMEscan analysis relative to control
[24] = biological target: Cyclin-dependent kinase 8 (Homo sapiens) (UniProt P49336); assay: Inhibition of T7 bacteriophage fused human CDK8 at 10 uM by KINOMEscan analysis relative to control
[25] = biological target: Hepatocyte growth factor receptor (Homo sapiens) (UniProt P08581); assay: Inhibition of T7 bacteriophage fused human MET at 10 uM by KINOMEscan analysis relative to control
[26] = biological target: Myosin-IIIb (Homo sapiens) (UniProt Q8WXR4); assay: Inhibition of T7 bacteriophage fused human MYO3B at 10 uM by KINOMEscan analysis relative to control
[27] = biological target: Leukocyte tyrosine kinase receptor (Homo sapiens) (UniProt P29376); assay: Inhibition of T7 bacteriophage fused human LTK at 10 uM by KINOMEscan analysis relative to control; values are per cent of control
[28] = biological target: Aurora kinase A (Homo sapiens) (UniProt O14965); assay: Inhibition of T7 bacteriophage fused human AURKA at 10 uM by KINOMEscan analysis relative to control
[29] = biological target: Serine/threonine-protein kinase/endoribonuclease IRE1 (Homo sapiens) (UniProt O75460); assay: Inhibition of T7 bacteriophage fused human ERN1 at 10 uM by KINOMEscan analysis relative to control; values are per cent of control
Chain of Serine/threonine-protein kinase/endoribonuclease IRE1 (Homo sapiens) (O75460 19-977 limits assumed): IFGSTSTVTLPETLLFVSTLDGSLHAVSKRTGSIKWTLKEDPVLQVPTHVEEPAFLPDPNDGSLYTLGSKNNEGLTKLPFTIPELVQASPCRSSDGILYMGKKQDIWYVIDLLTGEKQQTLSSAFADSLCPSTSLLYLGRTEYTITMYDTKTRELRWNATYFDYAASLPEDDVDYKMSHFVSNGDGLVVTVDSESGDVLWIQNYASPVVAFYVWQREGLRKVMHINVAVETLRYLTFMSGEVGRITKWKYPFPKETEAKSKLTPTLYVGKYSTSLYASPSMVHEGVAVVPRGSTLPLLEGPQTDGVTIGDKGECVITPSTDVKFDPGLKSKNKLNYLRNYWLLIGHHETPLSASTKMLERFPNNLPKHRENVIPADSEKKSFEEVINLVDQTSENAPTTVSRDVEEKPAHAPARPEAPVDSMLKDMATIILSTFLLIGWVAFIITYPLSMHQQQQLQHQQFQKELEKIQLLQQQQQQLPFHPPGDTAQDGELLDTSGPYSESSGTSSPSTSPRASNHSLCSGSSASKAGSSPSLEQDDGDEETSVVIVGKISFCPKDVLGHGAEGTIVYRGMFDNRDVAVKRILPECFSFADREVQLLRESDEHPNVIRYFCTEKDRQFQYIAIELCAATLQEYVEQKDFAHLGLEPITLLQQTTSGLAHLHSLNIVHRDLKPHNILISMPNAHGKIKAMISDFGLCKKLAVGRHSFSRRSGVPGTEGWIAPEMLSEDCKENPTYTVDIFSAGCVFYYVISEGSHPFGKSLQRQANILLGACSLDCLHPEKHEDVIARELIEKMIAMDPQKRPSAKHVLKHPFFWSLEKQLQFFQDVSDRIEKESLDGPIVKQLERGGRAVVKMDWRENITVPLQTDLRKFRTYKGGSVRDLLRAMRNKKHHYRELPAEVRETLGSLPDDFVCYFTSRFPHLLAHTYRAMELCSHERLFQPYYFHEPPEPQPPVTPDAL

Chain of Leucine-rich repeat serine/threonine-protein kinase 2 (Homo sapiens) (Q5S007 whole entry, the tested form may be a part): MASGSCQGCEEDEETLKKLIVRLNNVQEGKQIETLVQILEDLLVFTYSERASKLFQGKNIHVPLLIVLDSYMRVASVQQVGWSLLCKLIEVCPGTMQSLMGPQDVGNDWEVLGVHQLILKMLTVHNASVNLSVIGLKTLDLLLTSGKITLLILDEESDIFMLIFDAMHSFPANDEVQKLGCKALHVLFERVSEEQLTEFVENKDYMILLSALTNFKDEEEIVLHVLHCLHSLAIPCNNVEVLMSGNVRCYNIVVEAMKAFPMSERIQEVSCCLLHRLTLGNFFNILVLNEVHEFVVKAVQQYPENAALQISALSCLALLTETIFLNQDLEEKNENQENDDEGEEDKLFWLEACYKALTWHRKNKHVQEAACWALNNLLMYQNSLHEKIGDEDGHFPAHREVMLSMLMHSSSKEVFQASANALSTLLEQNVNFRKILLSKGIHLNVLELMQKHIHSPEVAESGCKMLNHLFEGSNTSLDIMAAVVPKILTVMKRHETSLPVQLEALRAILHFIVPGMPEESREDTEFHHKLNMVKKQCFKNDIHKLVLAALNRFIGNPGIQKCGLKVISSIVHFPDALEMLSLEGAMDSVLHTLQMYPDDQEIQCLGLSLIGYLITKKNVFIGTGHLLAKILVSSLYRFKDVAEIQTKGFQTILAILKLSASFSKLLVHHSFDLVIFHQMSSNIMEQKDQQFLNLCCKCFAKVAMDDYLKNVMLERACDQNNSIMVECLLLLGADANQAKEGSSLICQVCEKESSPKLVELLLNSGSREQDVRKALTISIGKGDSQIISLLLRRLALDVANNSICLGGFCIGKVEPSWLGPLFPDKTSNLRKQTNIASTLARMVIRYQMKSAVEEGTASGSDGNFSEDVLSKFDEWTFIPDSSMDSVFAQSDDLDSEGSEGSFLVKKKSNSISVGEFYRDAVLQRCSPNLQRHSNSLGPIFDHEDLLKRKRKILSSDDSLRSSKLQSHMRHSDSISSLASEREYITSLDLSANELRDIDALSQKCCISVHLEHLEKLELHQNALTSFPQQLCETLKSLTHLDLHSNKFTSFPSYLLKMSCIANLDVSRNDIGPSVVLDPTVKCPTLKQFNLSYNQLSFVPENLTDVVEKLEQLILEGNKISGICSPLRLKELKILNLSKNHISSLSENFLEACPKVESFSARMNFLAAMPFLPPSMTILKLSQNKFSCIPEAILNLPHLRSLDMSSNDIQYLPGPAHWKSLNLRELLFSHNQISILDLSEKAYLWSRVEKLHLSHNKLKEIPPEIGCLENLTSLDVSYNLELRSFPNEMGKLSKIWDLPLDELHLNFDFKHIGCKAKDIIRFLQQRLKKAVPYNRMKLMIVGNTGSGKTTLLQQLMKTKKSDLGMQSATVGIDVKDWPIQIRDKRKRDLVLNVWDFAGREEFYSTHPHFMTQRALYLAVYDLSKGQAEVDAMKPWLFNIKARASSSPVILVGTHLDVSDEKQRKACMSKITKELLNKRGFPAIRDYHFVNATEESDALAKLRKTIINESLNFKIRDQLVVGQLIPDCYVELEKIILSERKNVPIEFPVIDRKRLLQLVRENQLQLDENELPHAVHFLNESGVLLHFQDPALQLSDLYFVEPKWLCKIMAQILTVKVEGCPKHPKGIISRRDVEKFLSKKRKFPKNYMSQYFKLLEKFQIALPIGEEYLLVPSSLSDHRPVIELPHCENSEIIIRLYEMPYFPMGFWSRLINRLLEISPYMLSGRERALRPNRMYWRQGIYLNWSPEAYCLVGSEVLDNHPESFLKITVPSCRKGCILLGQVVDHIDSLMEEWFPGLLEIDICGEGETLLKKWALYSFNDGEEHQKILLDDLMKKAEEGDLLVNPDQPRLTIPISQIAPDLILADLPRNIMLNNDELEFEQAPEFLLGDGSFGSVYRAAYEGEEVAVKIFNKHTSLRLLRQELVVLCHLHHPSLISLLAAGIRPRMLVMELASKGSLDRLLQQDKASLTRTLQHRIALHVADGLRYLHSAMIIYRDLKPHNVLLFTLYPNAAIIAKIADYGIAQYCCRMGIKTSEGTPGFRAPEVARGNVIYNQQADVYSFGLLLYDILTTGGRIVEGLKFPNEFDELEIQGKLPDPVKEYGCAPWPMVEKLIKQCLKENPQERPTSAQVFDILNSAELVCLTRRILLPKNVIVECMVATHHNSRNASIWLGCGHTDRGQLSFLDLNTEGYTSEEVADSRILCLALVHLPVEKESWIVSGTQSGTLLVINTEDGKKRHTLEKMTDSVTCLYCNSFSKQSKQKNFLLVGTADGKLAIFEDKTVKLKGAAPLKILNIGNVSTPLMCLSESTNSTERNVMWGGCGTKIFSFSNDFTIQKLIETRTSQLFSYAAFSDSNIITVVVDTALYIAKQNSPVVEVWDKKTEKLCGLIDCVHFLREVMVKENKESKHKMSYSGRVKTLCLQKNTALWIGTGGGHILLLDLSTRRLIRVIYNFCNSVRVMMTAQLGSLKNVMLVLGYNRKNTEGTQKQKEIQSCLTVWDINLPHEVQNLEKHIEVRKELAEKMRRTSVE
Chain of Mitogen-activated protein kinase 15 (Homo sapiens) (Q8TD08 whole entry, the tested form may be a part): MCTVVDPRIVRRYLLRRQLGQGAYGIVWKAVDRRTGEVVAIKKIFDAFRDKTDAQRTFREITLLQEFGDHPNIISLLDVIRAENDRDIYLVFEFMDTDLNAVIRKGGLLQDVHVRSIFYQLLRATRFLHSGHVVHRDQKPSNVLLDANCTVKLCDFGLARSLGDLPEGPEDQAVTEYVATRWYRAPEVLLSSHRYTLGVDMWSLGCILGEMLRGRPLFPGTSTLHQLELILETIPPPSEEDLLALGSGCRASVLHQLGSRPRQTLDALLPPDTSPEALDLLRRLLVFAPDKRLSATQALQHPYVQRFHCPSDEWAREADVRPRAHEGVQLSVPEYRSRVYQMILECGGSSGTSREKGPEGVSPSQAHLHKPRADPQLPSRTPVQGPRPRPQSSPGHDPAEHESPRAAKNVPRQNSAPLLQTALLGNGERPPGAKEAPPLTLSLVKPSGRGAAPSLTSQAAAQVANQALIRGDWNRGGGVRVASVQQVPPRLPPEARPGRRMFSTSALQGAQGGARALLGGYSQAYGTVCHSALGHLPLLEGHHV
Chain of cGMP-dependent protein kinase 2 (Homo sapiens) (Q13237 whole entry, the tested form may be a part): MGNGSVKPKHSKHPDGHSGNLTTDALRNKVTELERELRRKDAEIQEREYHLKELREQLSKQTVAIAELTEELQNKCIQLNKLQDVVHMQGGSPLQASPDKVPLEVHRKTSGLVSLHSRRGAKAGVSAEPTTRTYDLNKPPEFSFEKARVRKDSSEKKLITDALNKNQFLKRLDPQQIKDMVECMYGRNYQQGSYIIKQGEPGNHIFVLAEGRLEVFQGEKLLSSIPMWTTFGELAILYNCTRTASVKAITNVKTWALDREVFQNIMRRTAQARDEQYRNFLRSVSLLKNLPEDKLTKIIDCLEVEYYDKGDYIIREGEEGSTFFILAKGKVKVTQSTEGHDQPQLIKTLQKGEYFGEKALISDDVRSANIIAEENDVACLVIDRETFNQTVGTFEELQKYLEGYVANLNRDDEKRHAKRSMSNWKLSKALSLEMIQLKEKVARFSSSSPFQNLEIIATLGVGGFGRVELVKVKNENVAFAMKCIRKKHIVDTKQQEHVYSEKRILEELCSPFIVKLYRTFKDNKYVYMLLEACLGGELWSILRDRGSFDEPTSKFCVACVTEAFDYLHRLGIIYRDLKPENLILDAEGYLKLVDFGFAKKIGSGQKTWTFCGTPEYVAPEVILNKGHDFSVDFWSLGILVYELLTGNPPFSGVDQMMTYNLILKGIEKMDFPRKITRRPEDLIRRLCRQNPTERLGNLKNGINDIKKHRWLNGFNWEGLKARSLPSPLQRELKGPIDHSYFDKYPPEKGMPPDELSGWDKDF
Chain of Serine/threonine-protein kinase 16 (Homo sapiens) (O75716 whole entry, the tested form may be a part): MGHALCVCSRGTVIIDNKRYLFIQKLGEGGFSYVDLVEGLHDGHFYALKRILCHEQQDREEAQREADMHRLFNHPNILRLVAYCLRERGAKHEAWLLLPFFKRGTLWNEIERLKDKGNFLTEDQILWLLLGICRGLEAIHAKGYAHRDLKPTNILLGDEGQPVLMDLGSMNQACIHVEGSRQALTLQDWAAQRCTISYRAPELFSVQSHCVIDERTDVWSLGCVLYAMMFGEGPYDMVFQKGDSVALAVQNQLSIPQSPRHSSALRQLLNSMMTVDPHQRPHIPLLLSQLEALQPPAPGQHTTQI

CCOc1cc(C(=O)N2CCC(N3CCN(C)CC3)CC2)ccc1Nc1ncc2c(n1)N(C1CCCC1)c1ccccc1C(=O)N2C
inhibition [1]: inactive

COc1cc(N2CCC(N3CCN(C)CC3)CC2)ccc1Nc1ncc2c(n1)N(C)c1ccccc1C(=O)N2C
residual activity [2]: 96% | inhibition [3]: 100% | inhibition [4]: 100% | residual activity [5]: 95% | residual activity [6]: 95% | inhibition [7]: 100% | inhibition [8]: 2.8% | inhibition [9]: 99% | residual activity [10]: 99% | residual activity [11]: 0.05% | inhibition [12]: 100% | residual activity [13]: 99% | inhibition [14]: 100% | residual activity [15]: 98% | inhibition [16]: 100% | inhibition [17]: 74% | inhibition [18]: 100% | inhibition [19]: 62% | inhibition [20]: 100% | inhibition [21]: 100% | residual activity [22]: 84% | inhibition [23]: 98% | inhibition [24]: 100% | inhibition [25]: 100% | inhibition [26]: 83% | residual activity [27]: 32% | inhibition [28]: 1.2% | residual activity [29]: 59%
